pIC50, pKi: −log10 of the molar value. Where a SMILES comes first, the peptide text is derived from it. Bridges are numbered along the chain shown (N, C = ends). [ ]: non-standard residue; d: D form. The star is where a group is joined. Threoninol(2S,3R) = C[C@@H](O)[C@H](CO)N*

For 23 compounds, IC50 and Ki results are on record in ChEMBL document CHEMBL1909046, “DrugMatrix in vitro pharmacology data”.

One experiment deals with T1, Neutrophil elastase (Homo sapiens, UniProt P08246).
T1 sequence (P08246 whole entry): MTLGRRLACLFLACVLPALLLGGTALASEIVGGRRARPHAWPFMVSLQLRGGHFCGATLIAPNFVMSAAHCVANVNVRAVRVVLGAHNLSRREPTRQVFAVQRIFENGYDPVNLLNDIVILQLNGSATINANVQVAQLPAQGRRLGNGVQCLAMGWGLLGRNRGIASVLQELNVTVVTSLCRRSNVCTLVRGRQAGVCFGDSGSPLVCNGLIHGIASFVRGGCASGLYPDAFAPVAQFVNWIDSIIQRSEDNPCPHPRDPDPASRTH
The format is tissue-based.

Another experiment deals with T2, Caspase-1 (Homo sapiens, UniProt P29466).
T2 sequence (P29466 whole entry): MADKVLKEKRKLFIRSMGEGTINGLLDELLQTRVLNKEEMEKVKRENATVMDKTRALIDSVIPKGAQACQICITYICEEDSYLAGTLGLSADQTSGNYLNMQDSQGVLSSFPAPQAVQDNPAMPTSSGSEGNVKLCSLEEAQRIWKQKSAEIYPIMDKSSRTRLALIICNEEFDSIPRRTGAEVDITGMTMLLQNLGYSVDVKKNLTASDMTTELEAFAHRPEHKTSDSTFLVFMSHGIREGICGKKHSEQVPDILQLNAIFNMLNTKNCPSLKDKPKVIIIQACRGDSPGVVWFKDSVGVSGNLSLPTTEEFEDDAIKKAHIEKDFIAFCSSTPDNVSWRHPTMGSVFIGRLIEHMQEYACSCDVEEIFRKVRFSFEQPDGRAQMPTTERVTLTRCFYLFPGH
Also noted: species or system Escherichia coli.

In the next experiment the target is D(1A) dopamine receptor (Homo sapiens, UniProt P21728). Briefly: DRUGMATRIX: Dopamine D1 radioligand binding (ligand: [3H] SCH-23390). The format is cell membranes, Membrane. The following applies: cho; Not Active = under 50% inhibition at 10 µM.
Chain of D(1A) dopamine receptor (P21728 whole entry): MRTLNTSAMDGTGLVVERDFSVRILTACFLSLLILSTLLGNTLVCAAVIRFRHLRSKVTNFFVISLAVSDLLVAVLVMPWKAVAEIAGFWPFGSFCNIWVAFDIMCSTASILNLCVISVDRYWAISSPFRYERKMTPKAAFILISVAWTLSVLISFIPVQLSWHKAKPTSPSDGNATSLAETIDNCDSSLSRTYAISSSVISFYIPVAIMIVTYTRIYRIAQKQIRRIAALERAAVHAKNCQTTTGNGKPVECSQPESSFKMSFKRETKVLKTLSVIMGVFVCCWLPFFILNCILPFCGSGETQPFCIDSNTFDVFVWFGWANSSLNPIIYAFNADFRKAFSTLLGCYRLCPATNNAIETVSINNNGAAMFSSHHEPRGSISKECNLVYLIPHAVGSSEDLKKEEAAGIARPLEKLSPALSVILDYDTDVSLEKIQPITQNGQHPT
Experiment [1] is described as follows: DRUGMATRIX: Phosphodiesterase PDE3 enzyme inhibition (substrate: [3H]cAMP + cAMP). The following applies: platelet; Not Active = under 50% inhibition at 10 µM. The format is tissue-based, Homo sapiens.
Experiment [2] addresses Sodium-dependent dopamine transporter (Homo sapiens, UniProt Q01959). The experiment can be described thus: DRUGMATRIX: Dopamine Transporter radioligand binding (ligand: [125I] RTI-55). The following applies: Not Active = under 50% inhibition at 10 µM. The class given is cell membranes, CHO-K1, Membrane.
The target in experiment [3] is 5-hydroxytryptamine receptor 4 (Cavia porcellus, UniProt O70528). The format is cell membranes, Dunkin-Hartley, Striatum, Membrane. Further: in other assays of this panel Not Active means under 50% inhibition at 10 µM.
Chain of 5-hydroxytryptamine receptor 4 (O70528 whole entry): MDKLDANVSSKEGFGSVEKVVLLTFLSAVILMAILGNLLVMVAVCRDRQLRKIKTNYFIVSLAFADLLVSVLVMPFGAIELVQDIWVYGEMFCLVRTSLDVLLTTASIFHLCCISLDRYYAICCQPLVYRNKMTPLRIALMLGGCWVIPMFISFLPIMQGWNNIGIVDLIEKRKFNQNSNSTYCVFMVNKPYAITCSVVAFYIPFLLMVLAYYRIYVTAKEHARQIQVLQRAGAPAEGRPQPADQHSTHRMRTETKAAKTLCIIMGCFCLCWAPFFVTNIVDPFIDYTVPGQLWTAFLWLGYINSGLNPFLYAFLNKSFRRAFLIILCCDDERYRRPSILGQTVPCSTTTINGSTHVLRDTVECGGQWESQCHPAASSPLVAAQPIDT

Chain of Sodium-dependent dopamine transporter (Q01959 whole entry): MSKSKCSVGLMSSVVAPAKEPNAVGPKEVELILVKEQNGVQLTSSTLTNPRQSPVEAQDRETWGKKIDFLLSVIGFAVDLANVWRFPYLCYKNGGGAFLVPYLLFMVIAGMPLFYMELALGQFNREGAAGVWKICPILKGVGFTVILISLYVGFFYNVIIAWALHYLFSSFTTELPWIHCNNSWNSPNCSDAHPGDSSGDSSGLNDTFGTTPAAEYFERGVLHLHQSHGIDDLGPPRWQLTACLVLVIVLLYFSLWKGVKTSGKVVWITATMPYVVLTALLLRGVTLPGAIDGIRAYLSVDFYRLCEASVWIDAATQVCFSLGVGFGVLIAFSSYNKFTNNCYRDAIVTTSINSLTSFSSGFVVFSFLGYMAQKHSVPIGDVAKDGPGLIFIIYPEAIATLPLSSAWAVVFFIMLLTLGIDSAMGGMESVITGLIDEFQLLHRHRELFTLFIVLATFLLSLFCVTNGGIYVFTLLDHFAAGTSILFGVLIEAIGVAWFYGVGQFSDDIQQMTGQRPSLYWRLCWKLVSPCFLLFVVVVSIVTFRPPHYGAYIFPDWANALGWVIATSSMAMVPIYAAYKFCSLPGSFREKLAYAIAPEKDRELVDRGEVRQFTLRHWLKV

`COc1ccccc1C(=O)N1CCC(Cc2ccccc2)CC1`: the IC50 result (on Neutrophil elastase; against Caspase-1; at D(1A) dopamine receptor; in experiment [1]; in experiment [2] (cho-k1); in experiment [3]) was “Not Active” each time. The Ki entry in experiment [1] is “Not Active”.
Consider `Cc1ccccc1C(=O)N1CCC(Cc2ccccc2)CC1`, for which the IC50 result (against Neutrophil elastase; against Caspase-1; on D(1A) dopamine receptor; in experiment [1]; in experiment [2] (cho-k1); in experiment [3]) was “Not Active” each time. The Ki entry in experiment [1] is recorded as “Not Active”.
On to `O=C1CC[C@H](N2C(=O)c3ccccc3C2=O)C(=O)N1`, for which the IC50 entry (at Neutrophil elastase; at Caspase-1; on D(1A) dopamine receptor; in experiment [1]; in experiment [2] (cho-k1); in experiment [3]) was “Not Active” each time. Moreover, the Ki entry in experiment [1] was “Not Active”.
Regarding `N=C(Nc1ccccc1)Nc1ccccc1`, the IC50 entry (at Neutrophil elastase; against Caspase-1; at D(1A) dopamine receptor; in experiment [1]; in experiment [2] (cho-k1); in experiment [3]) was “Not Active” throughout. Also, the Ki entry in experiment [1] is reported as “Not Active”.
As for `C[C@@H](O)[C@H](CO)NC(=O)[C@@H]1CSSC[C@H](NC(=O)[C@H](N)Cc2ccccc2)C(=O)N[C@@H](Cc2ccccc2)C(=O)N[C@H](Cc2c[nH]c3ccccc23)C(=O)N[C@@H](CCCCN)C(=O)N[C@@H]([C@@H](C)O)C(=O)N1` (H-[dF]CF[dW]KTC-{Threoninol(2S,3R)}; disulfide 2-7), the IC50 result (against Neutrophil elastase; against Caspase-1; at D(1A) dopamine receptor; in experiment [1]; in experiment [2] (cho-k1); in experiment [3]) was “Not Active” in each case. In addition, in experiment [1], the Ki result is listed as “Not Active”.
`S=C=Nc1cccc2ccccc12` [1-NAPHTHYLISOTHIOCYANATE]: the IC50 entry (at Neutrophil elastase; against Caspase-1; in experiment [1]; in experiment [2] (cho-k1); in experiment [3]) was “Not Active” in each case. Moreover, in experiment [1], the Ki result was “Not Active”.
Turning to `C[C@](O)(CS(=O)(=O)c1ccc(F)cc1)C(=O)Nc1ccc(C#N)c(C(F)(F)F)c1` [(R)-BICALUTAMIDE], the IC50 entry (against Neutrophil elastase; on Caspase-1; at D(1A) dopamine receptor; in experiment [1]; in experiment [2] (cho-k1); in experiment [3]) was “Not Active” each time. Moreover, the Ki entry in experiment [1] was “Not Active”.
Turning to `CCCC(=O)Nc1ccc(OCC(O)CNC(C)C)c(C(C)=O)c1` (stereo not drawn) [ACEBUTOLOL], the IC50 entry (against Neutrophil elastase; at Caspase-1; at D(1A) dopamine receptor; in experiment [1]; in experiment [2] (cho-k1); in experiment [3]) was “Not Active” in each case. The Ki entry in experiment [1] was “Not Active”.
On to `CC(=O)Nc1ccc(O)cc1` [ACETAMINOPHEN], for which the IC50 result (against Neutrophil elastase; against Caspase-1; on D(1A) dopamine receptor; in experiment [1]; in experiment [2] (cho-k1); in experiment [3]) was “Not Active” each time. For the same compound, the Ki result in experiment [1] is given as “Not Active”.
On to `COc1cc2c(c3oc(=O)c4c(c13)CCC4=O)[C@@H]1C=CO[C@@H]1O2` [AFLATOXIN], for which the IC50 entry (at Neutrophil elastase; on Caspase-1; on D(1A) dopamine receptor; in experiment [1]; in experiment [2] (cho-k1); in experiment [3]) was “Not Active” in each case. The Ki result (at Neutrophil elastase; at Caspase-1; at D(1A) dopamine receptor; in experiment [1]; in experiment [2] (cho-k1); in experiment [3]) was “Not Active” each time.
As to `N=C(N)NC(=O)c1nc(Cl)c(N)nc1N` [AMILORIDE], the IC50 entry (on Neutrophil elastase; on Caspase-1; at D(1A) dopamine receptor; in experiment [1]; in experiment [2] (cho-k1); in experiment [3]) was “Not Active” each time. For the same compound, the Ki result in experiment [1] is “Not Active”.
In the case of `Cc1cc(=O)n(-c2ccccc2)n1C` [ANTIPYRINE], the IC50 result (against Neutrophil elastase; on Caspase-1; at D(1A) dopamine receptor; in experiment [1]; in experiment [2] (cho-k1); in experiment [3]) was “Not Active” each time. The Ki result in experiment [1] is “Not Active”.
`CN1C(=O)COc2c(C(=O)NC3CN4CCC3CC4)cc(Cl)cc21` (stereo not drawn) [AZASETRON]: the IC50 result (on Neutrophil elastase; against Caspase-1; on D(1A) dopamine receptor; in experiment [1]; in experiment [2] (cho-k1); in experiment [3]) was “Not Active” each time. Besides, the Ki entry in experiment [1] is recorded as “Not Active”.
For the compound `C[C@H]1C[C@H]2[C@@H]3CCC4=CC(=O)C=C[C@]4(C)[C@@]3(Cl)[C@@H](O)C[C@]2(C)[C@@]1(O)C(=O)CO` [BECLOMETHASONE], the IC50 entry (at Neutrophil elastase; against Caspase-1; at D(1A) dopamine receptor; in experiment [1]; in experiment [2] (cho-k1); in experiment [3]) was “Not Active” throughout. Further, the Ki result in experiment [1] is on record as “Not Active”.
`CCOC(=O)[C@H](CCc1ccccc1)N[C@H]1CCc2ccccc2N(CC(=O)O)C1=O` [BENAZEPRIL]: the IC50 result (at Neutrophil elastase; against Caspase-1; at D(1A) dopamine receptor; in experiment [1]; in experiment [2] (cho-k1); in experiment [3]) was “Not Active” throughout. In addition, in experiment [1], the Ki entry is recorded as “Not Active”.
Consider `Nc1c(CC(=O)O)cccc1C(=O)c1ccc(Br)cc1` [BROMFENAC], for which the IC50 result (on Neutrophil elastase; on Caspase-1; on D(1A) dopamine receptor; in experiment [1]; in experiment [2] (cho-k1); in experiment [3]) was “Not Active” in each case. Moreover, the Ki result in experiment [1] is on record as “Not Active”.
For the compound `CCCCN1CCCCC1C(=O)Nc1c(C)cccc1C.Cl` (stereo not drawn) [BUPIVACAINE HYDROCHLORIDE], the IC50 result (against Neutrophil elastase; against Caspase-1; at D(1A) dopamine receptor; in experiment [1]; in experiment [2] (cho-k1); in experiment [3]) was “Not Active” throughout. In addition, the Ki result in experiment [1] is on record as “Not Active”.
Consider `O=C1CC2(CCCC2)CC(=O)N1CCCCN1CCN(c2ncccn2)CC1` [BUSPIRONE], for which the IC50 result (on Neutrophil elastase; against Caspase-1; at D(1A) dopamine receptor; in experiment [1]; in experiment [2] (cho-k1); in experiment [3]) was “Not Active” in each case. Moreover, in experiment [1], the Ki entry was “Not Active”.
Turning to `C[C@@]12C(=O)OC(=O)[C@]1(C)[C@H]1CC[C@@H]2O1` [CANTHARIDIN], the IC50 result (at Neutrophil elastase; on Caspase-1; on D(1A) dopamine receptor; in experiment [1]; in experiment [2] (cho-k1); in experiment [3]) was “Not Active” throughout. Besides, in experiment [1], the Ki entry is on record as “Not Active”.
As for `O=NN(CCCl)C(=O)NCCCl` [CARMUSTINE], the IC50 result (at Neutrophil elastase; against Caspase-1; at D(1A) dopamine receptor; in experiment [1]; in experiment [2] (cho-k1); in experiment [3]) was “Not Active” each time. In experiment [1], the Ki result is reported as “Not Active”.
For `CC1=C(C(=O)O)N2C(=O)[C@@H](NC(=O)[C@H](N)c3ccccc3)[C@H]2SC1` [CEPHALEXIN ANHYDROUS], the IC50 result (at Neutrophil elastase; against Caspase-1; on D(1A) dopamine receptor; in experiment [1]; in experiment [2] (cho-k1); in experiment [3]) was “Not Active” in each case. Further, the Ki entry in experiment [1] was “Not Active”.
With `CN(C)c1ccc(C(=C2C=CC(=[N+](C)C)C=C2)c2ccc(N(C)C)cc2)cc1.[Cl-]` [GENTIAN VIOLET], the IC50 result (at Neutrophil elastase; against Caspase-1; in experiment [1]; in experiment [3]) was “Not Active” throughout. Also, the Ki result in experiment [1] is recorded as “Not Active”. Further, the negative-log IC50 (pIC50) in experiment [2] (read-out: IC50) was 5.39. Also, in experiment [2] (read-out: Ki), the pKi was 5.49.
As to `COc1ccc2cc([C@H](C)C(=O)O)ccc2c1` [NAPROXEN], the IC50 entry (against Neutrophil elastase; on Caspase-1; on D(1A) dopamine receptor; in experiment [2] (cho-k1); in experiment [3]) was “Not Active” throughout.
